Source: patent publication US20030215462A1, “Use of UGT inhibitors to increase bioavailability” (priority 2001, published 2003)
Values joined by “and” are separate entries in the source; they are usually repeats but may differ in a detail not shown here. Equal values may be shown once.

What was measured:
UGT1A10 = molecular target: T1, UGT1A10 (Homo sapiens, UniProt Q9HAW8); assay: in vitro; settings: pH 7.5, % of control metabolism
T1 sequence (Q9HAW8 26-530): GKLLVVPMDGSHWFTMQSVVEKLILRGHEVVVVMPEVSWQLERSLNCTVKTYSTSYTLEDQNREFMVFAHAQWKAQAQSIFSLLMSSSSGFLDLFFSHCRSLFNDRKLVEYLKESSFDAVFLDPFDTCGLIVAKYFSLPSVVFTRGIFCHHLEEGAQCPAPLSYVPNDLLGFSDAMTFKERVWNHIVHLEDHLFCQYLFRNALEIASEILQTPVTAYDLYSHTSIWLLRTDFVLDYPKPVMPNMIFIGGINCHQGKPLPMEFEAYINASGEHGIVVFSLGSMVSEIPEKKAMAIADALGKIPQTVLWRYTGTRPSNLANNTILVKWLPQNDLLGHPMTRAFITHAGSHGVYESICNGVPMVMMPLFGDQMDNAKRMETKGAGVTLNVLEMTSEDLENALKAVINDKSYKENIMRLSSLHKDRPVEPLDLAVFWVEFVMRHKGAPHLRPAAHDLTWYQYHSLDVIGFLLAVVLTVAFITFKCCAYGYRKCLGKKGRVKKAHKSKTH
Protocol: (§1) Compounds were eluted using a binary solvent gradient system. Solvent A was water brought to pH 8 with NH4OH. Solvent B was methanol. Solvent flow rate was 1 ml/min and the column temperature was maintained at 50° C. Detection was at 280 nm. […] The system was then returned to the initial conditions and equilibrated for 3 min.

[1] = tested on: UGT enzymes of human liver microsomes; assay: Inhibition of raloxifene glucuronidation (G1, G2) in human liver microsomes; format: biochemical; settings: for % of control metabolism (SD, n = 3), raloxifene glucuronide G1 / % of control metabolism (SD, n = 3), raloxifene glucuronide G2: human liver microsomes 250 μg/ml, 15 min
Text: Compounds were eluted using a binary solvent gradient system. […] Solvent B was methanol. […] Detection was at 280 nm.

[2] = tested on: UGT enzymes of human liver microsomes; assay: Inhibition of labetalol glucuronidation (LG1, LG2) in human liver microsomes; format: biochemical; settings: labetalol 50 μM; inhibitor 500 μM
UGT1A9 = molecular target: T2, UGT1A9 (Homo sapiens, UniProt O60656); assay: in vitro
T2 sequence (O60656 26-530): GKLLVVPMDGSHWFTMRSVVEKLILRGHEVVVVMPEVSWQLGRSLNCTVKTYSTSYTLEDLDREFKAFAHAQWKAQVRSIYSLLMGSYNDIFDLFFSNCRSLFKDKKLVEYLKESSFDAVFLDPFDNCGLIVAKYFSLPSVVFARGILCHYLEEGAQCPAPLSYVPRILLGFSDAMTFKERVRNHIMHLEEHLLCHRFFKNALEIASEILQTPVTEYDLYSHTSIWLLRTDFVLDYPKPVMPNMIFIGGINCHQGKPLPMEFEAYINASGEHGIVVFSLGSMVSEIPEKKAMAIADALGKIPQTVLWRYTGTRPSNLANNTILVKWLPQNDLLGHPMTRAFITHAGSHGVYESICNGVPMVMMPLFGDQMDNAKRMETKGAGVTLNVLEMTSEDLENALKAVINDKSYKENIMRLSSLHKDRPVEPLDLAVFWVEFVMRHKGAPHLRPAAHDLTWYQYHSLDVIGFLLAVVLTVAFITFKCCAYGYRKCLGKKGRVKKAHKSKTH
Protocol: as §1

UGT1A8 = molecular target: T3, UGT1A8 (Homo sapiens, UniProt Q9HAW9); assay: in vitro; settings: pH 7.5, % of control metabolism
T3 sequence (Q9HAW9 26-530): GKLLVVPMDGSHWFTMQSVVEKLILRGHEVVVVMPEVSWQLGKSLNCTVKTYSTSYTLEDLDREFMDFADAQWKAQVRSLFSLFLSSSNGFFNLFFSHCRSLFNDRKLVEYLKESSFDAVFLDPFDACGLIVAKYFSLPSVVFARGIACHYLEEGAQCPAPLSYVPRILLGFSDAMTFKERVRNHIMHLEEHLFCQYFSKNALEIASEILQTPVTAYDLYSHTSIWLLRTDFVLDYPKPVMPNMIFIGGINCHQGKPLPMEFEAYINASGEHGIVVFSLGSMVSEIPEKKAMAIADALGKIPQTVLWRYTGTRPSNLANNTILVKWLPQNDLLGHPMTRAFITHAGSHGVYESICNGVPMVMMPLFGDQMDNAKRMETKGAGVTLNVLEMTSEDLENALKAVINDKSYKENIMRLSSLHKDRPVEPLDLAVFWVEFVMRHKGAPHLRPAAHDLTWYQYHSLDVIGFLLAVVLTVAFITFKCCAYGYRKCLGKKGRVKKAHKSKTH
Protocol: as §1

[3] = inhibitor 25 μM, raloxifene 50 μM
[4] = inhibitor 50 μM, raloxifene 50 μM
[5] = inhibitor 100 μM, raloxifene 50 μM
[6] = inhibitor 500 μM, raloxifene 50 μM
[7] = liver lot 032101, inhibitor 50 μM
[8] = liver lot 062101, inhibitor 50 μM
[9] = liver lot 083000, inhibitor 50 μM
[10] = raloxifene 50 μM, inhibitor 25 μM
[11] = raloxifene 50 μM, inhibitor 50 μM
[12] = raloxifene 50 μM, inhibitor 100 μM
[13] = pH 7.5, % of control metabolism, raloxifene G1
[14] = pH 7.5, % of control metabolism, raloxifene G2
[15] = inhibitor 10 μM, raloxifene 50 μM
[16] = raloxifene 50 μM, inhibitor 10 μM
[17] = pH 7.5, Inhibition of raloxifene glucuronidation, UGT1A9, first line per inhibitor (G1)
[18] = pH 7.5, Inhibition of raloxifene glucuronidation, UGT1A9, second line per inhibitor (G2)
[19] = inhibitor 2 μM, raloxifene 50 μM
[20] = inhibitor 5 μM, raloxifene 50 μM

| % of control metabolism (SD, n = 3), raloxifene glucuronide G1 [1, 3] | % of control metabolism (SD, n = 3), raloxifene glucuronide G1 [1, 4] | % of control metabolism (SD, n = 3), raloxifene glucuronide G1 [1, 5] | % of control metabolism (SD, n = 3), raloxifene glucuronide G1 [1, 6] | % of control metabolism (SD, n = 3), raloxifene glucuronide G2 [1, 3] | % of control metabolism (SD, n = 3), raloxifene glucuronide G2 [1, 4] | % of control metabolism (SD, n = 3), raloxifene glucuronide G2 [1, 5] | % of control metabolism (SD, n = 3), raloxifene glucuronide G2 [1, 6] | % of control metabolism, raloxifene G1 [1, 7] | % of control metabolism, raloxifene G2 [1, 7] | % of control metabolism, raloxifene G1 [1, 8] | % of control metabolism, raloxifene G2 [1, 8] | % of control metabolism, raloxifene G1 [1, 9] | % of control metabolism, raloxifene G2 [1, 9] | % of control metabolism, raloxifene G1 [1, 10] | % of control metabolism, raloxifene G2 [1, 10] | Structure (SMILES) | activity at 15 min, 50 µM (UGT1A10; raloxifene G1) [%] | activity at 15 min, 50 µM (UGT1A10; raloxifene G2) [%] | activity at 15 min, 50 µM (UGT1A8; raloxifene G1) [%] | activity at 15 min, 50 µM (UGT1A8; raloxifene G2) [%] | further results |
| --- | --- | --- | --- | --- | --- | --- | --- | --- | --- | --- | --- | --- | --- | --- | --- | --- | --- | --- | --- | --- | --- |
| 63 (3) % | 43 (1) % | 30 (4) % | 6 (1) % | 66 (1) % | 45 (2) % | 34 (1) % | 7 (1) % | 52 (1) % | 54 (0) % | 67 (2) % | 57 (2) % | 43 (1) % | 45 (2) % | 63 (3) % | 66 (1) % | O=C(O)c1cc(-c2ccc(F)cc2F)ccc1O [Diflunisal, reference compound] | 90 | 90 | 81 | 126 | % of control metabolism, raloxifene G1 [1, 11]: 43 (1) %; % of control metabolism, raloxifene G2 [1, 11]: 45 (2) %; % of control metabolism, raloxifene G1 [1, 12]: 30 (4) %; % of control metabolism, raloxifene G2 [1, 12]: 34 (1) %; residual metabolism (percentage of control), labetalol LG1 [2]: 43 (5) %; residual metabolism (percentage of control), labetalol LG2 [2]: 35 (2) %; activity at 15 min, 50 µM (UGT1A9; [13]): 50%; activity at 15 min, 50 µM (UGT1A9; [14]): 43% |
| 48 (4) % | 37 (3) % | 20 (0) % | 0 (0) % | 55 (5) % | 43 (4) % | 24 (2) % | 0 (0) % | 47 (4) % | 45 (2) % | 63 (4) % | 37 (2) % | 37 (3) % | 43 (4) % | 48 (4) % | 55 (5) % | O=C(O[C@@H]1Cc2c(O)cc(O)cc2O[C@@H]1c1ccc(O)c(O)c1)c1cc(O)c(O)c(O)c1 [Epicatechin gallate] | 54 | 51 | 71 | 53 | % of control metabolism (SD, n = 3), raloxifene glucuronide G1 [1, 15]: 77 (4) %; % of control metabolism (SD, n = 3), raloxifene glucuronide G2 [1, 15]: 73 (4) %; % of control metabolism, raloxifene G1 [1, 16]: 77 (4) %; % of control metabolism, raloxifene G2 [1, 16]: 73 (4) %; % of control metabolism, raloxifene G1 [1, 11]: 37 (3) %; % of control metabolism, raloxifene G2 [1, 11]: 43 (4) %; % of control metabolism, raloxifene G1 [1, 12]: 20 (0) %; % of control metabolism, raloxifene G2 [1, 12]: 24 (2) %; activity at 15 min, 50 µM (UGT1A9; [13]): 48%; activity at 15 min, 50 µM (UGT1A9; [14]): 45% |
|  |  |  |  |  |  |  |  |  |  |  |  |  |  |  |  | C=CCc1ccc(O)c(OC)c1 [Eugenol] | 85 | 81 | 107 | 103 | % of control metabolism, raloxifene G1 ([1]; 50 µM): 39 (0), 41 (3) % and 65 (1), 63 (3) % and 69 (4), 53 (2) %; % of control metabolism, raloxifene G2 ([1]; 50 µM): 39 (0), 41 (3) % and 65 (1), 63 (3) % and 69 (4), 53 (2) %; activity at 15 min, 25 µM (UGT1A9; [13]): 56%; activity at 15 min, 50 µM (UGT1A9; [13]): 32%; activity at 15 min, 25 µM (UGT1A9; [14]): 51%; activity at 15 min, 50 µM (UGT1A9; [14]): 29%; activity at 15 min, 25 µM (UGT1A9; [17]): 56%; activity at 15 min, 50 µM (UGT1A9; [17]): 32%; activity at 15 min, 25 µM (UGT1A9; [18]): 51%; activity at 15 min, 50 µM (UGT1A9; [18]): 29% |

| Structure (SMILES) | % of control metabolism (SD, n = 3), raloxifene glucuronide G1 [1, 3] | % of control metabolism (SD, n = 3), raloxifene glucuronide G1 [1, 4] | % of control metabolism (SD, n = 3), raloxifene glucuronide G1 [1, 5] | % of control metabolism (SD, n = 3), raloxifene glucuronide G1 [1, 6] | % of control metabolism (SD, n = 3), raloxifene glucuronide G2 [1, 3] | % of control metabolism (SD, n = 3), raloxifene glucuronide G2 [1, 4] | % of control metabolism (SD, n = 3), raloxifene glucuronide G2 [1, 5] | % of control metabolism (SD, n = 3), raloxifene glucuronide G2 [1, 6] | % of control metabolism, raloxifene G1 [1, 7] | % of control metabolism, raloxifene G2 [1, 7] | % of control metabolism, raloxifene G1 [1, 8] | % of control metabolism, raloxifene G2 [1, 8] | % of control metabolism, raloxifene G1 [1, 9] | % of control metabolism, raloxifene G2 [1, 9] | % of control metabolism, raloxifene G1 [1, 10] | % of control metabolism, raloxifene G2 [1, 10] | activity at 15 min, 50 µM (UGT1A10; raloxifene G1) [%] | activity at 15 min, 50 µM (UGT1A10; raloxifene G2) [%] | activity at 15 min, 50 µM (UGT1A8; raloxifene G1) [%] | activity at 15 min, 50 µM (UGT1A8; raloxifene G2) [%] | further results |
| --- | --- | --- | --- | --- | --- | --- | --- | --- | --- | --- | --- | --- | --- | --- | --- | --- | --- | --- | --- | --- | --- |
| O=c1c(O)c(-c2ccc(O)c(O)c2)oc2cc(O)cc(O)c12 [Quercetin] | 18 (1) % | 8 (1) % | 6 (2) % | 0 (0) % | 25 (1) % | 15 (1) % | 13 (2) % | 0 (0) % | 25 (1) % | 35 (1) % | 34 (3) % | 35 (3) % | 8 (1) % | 15 (1) % | 18 (1) % | 25 (1) % | 55 | 48 | 95 | 81 | activity at 15 min, 25 µM (UGT1A10; raloxifene G1): 80%; activity at 15 min, 25 µM (UGT1A10; raloxifene G2): 80%; % of control metabolism (SD, n = 3), raloxifene glucuronide G1 [1, 19]: 82 (6) %; % of control metabolism (SD, n = 3), raloxifene glucuronide G1 [1, 20]: 69 (1) %; % of control metabolism (SD, n = 3), raloxifene glucuronide G1 [1, 15]: 48 (1) %; % of control metabolism (SD, n = 3), raloxifene glucuronide G2 [1, 19]: 78 (3) %; % of control metabolism (SD, n = 3), raloxifene glucuronide G2 [1, 20]: 67 (2) %; % of control metabolism (SD, n = 3), raloxifene glucuronide G2 [1, 15]: 50 (1) %; % of control metabolism, raloxifene G1 [1, 16]: 48 (1) %; % of control metabolism, raloxifene G2 [1, 16]: 50 (1) %; % of control metabolism, raloxifene G1 [1, 11]: 8 (1) %; % of control metabolism, raloxifene G2 [1, 11]: 15 (1) %; % of control metabolism, raloxifene G1 [1, 12]: 6 (2) %; % of control metabolism, raloxifene G2 [1, 12]: 13 (2) %; residual metabolism (percentage of control), labetalol LG1 [2]: 36 (3) %; residual metabolism (percentage of control), labetalol LG2 [2]: 23 (1) % |
